Assay results from US6136841A, “3-, 8-substituted deuteroporphyrin derivatives, pharmaceutical agents that contain the latter, process for their production and their use in photodynamic therapy and MRI diagnosis” (Schering Aktiengesellschaft, priority 1998, dated 2000).
Where two headings read alike, the source gives them in different places.

Assays:
[1] = test system: human colon carcinoma (HT-29 P9); test: Phototoxicity on a tumor cell culture, xenon lamp irradiation, live-dead coloration (Example 11); assay type: cell-based; details: irradiated with xenon lamp 8.5 k Lux, UV filter, three days; PE = porphyrin unit; 4320 min; read-out: ED50 (concentration at which about half of the cells are no longer vital)
Procedure: Determination of the phototoxicity (ED50) of compound Ic of WO 94/07894 (I) and of the title compound of Example 1d) (II) on a tumor cell culture.
In 25 ml culture flasks, a cell culture of human colon carcinoma (HT-29 P9) is reproduced for 3 days at 37° C. The cultures are divided into two groups and mixed with solutions of test substances (50 mmol of porphyrin unit (PE)/l, diluted with fetal calf serum) in increasing amounts (0; 1.5; 5; 8.5; 12; 15.5; 19 μmol of PE/l). The samples are irradiated for three days with a xenon lamp (8.5 k Lux, UV filter). The first group daily received 2 irradiations of 30 minutes each at an interval of 4 hours. For the rest of the time, it remains in the dark in an incubator. The second group is not exposed to light and remains in the dark in the incubator for the entire time. On the fourth day, the cell growth is determined by live-dead coloration and counting with the counting chamber.
The table indicates the concentration at which about half of the cells are no longer vital. (I: Example 1c of DE 4232925; II: Title compound of Example 1d)

[2] = test system: skin; details: in vivo; cited from earlier work
[3] = test system: human colon carcinomas (HT-29 P9); assay type: in vivo, hairless mouse
Procedure: Phototoxic effect of the compound [mu-16,16'-(7,12-diethyl-3,8,13,17-tetramethylporphyrin-2,18-diyl]bis[3,6,9-tris(carboxymethyl)-11,14-dioxo-3,6,9,12,13-pentaazahexadecanoato]}(8-)]}digadolinato(2-), disodium (Example 1c of WO 94/07894) on a tumor of a hairless mouse
Intracutaneous human colon carcinomas (HT-29 P9) are implanted in the sides of 15 hairless mice that weigh 24-30 g. The tumors are allowed to grow to a size of 5-10 mm. […] On days 1 and 3, i.v. substance is administered to the anesthetized animals. In this case, the animals of group 1 receive 2×130 μl of 0.9% NaCl solution, and they remain in the dark for the entire time. The animals of the second group receive 2×130 μl of a 100 mmol solution of the title compound, which corresponds to a dose of 2×0.5 mmol/kg of body weight. In each case, 30 minutes after administration, the animals are exposed to the light of a xenon lamp (8.5 k Lux, 1 cm glass as a UV filter) for 45 minutes. They spend the rest of the test time in the dark. 2×130 μl of a 100 mmol solution of test substance is also injected into the animals of the third group. The animals remain in the dark, however, for the duration of the test. On the 6th day after the substance is administered, the animals are sacrificed in ether. The tumor is measured, examined macroscopically, removed and tested histologically. […] In group 1, the range is 6.5×7.7 mm^2 up to 8.6×12.0 mm^2. In the very large tumors, which are fed by numerous blood vessels, small lesions of the skin (possibly bite marks) and in some cases deeper bleeding are evident in the center. […] With the animals of group 2, the following observations are made: […]

Compound	IC50 [1]	Duration of skin sensitization [2]	Histology: diameter of multifocal central necrosis ([3]; group 2, 2×0.5 mmol/kg i.v. + light, three non-eroded tumors)	Phototoxic action (overall) ([3]; group 2, substance + light)	Tumor growth into the muscle layer ([3]; group 2, substance + light)	Tumor size / tumor growth at end of test ([3]; group 2, substance + light)	Histology: diameter of multifocal central necrosis ([3]; group 3, 2×130 μl of 100 mmol solution, kept in the dark)	Tumor growth ([3]; group 3, substance, kept in the dark)
{Mu-[(16,16'-[zinc(II)-7,12-diethyl-3,8,13,17-tetramethylporphyrin-2,18-diyl]-bis[3,6,9-tris(carboxymethyl)-11,14-dioxo-3,6,9,12,13-pentaazahexadecanoato]}(8-)]}-digadolinato(2-), disodium [Example 1d]	5.1 µM	–	–	–	–	–	–	–
Oc1cccc(-c2c3nc(c(-c4cccc(O)c4)c4ccc([nH]4)c(-c4cccc(O)c4)c4nc(c(-c5cccc(O)c5)c5ccc2[nH]5)CC4)C=C3)c1 [m-THPC]	–	~ 3 weeks	–	–	–	–	–	–
[mu-16,16'-(7,12-diethyl-3,8,13,17-tetramethylporphyrin-2,18-diyl]bis[3,6,9-tris(carboxymethyl)-11,14-dioxo-3,6,9,12,13-pentaazahexadecanoato]}(8-)]}digadolinato(2-), disodium [Example 1c of WO 94/07894]	6.4 µM	–	1.5-2.1 mm	strong phototoxic action	The tumor did not grow into the muscle layer	Comparative measurement of tumor size was no longer possible in view of the extent of the destruction of the tumors. Tumor growth took place, if at all, only in the periphery and in deep tumor layers	0.1-0.8 mm	The tumors continue to fluorish
